In US11464770B2, “Anticancer pharmaceutical composition” (NATIONAL CANCER CENTER, priority 2016, dated 2022):
pIC50: −log10 of the molar value. Like-named read-outs stand apart in the source and are kept apart here. Values belong to the compound of their own block, whether it stands above or below them.

Key:
[1] = test system: cervical carcinoma cell lines; test: Cell based assay, cell viability (CellTiter-Glo), cervical carcinoma cell lines; settings: Homo sapiens; HeLa cells
Protocol: (§1) Commercially available bladder cancer, prostate cancer, lung cancer, breast cancer, blood cancer, pancreatic cancer, colorectal cancer, brain cancer, neuroblastoma, melanoma, liver cancer, cervical carcinoma, ovarian cancer, renal cancer, and papilloma cell lines were each treated with trypsin-EDTA and cultured, followed by being seeded in each well of a 96 well plate. […] The treated cells were additionally cultured for 72 hours, and cell viability was measured by using an ATP detection method (CellTiter-Glo® Luminescent Cell Viability Assay, Promega).

[2] = test system: pancreatic cancer cell lines (e.g. MIA PaCa-2); test: Cell based assay, cell viability (CellTiter-Glo), pancreatic cancer cell lines; settings: Homo sapiens
Protocol: (§2) Commercially available bladder cancer, prostate cancer, lung cancer, breast cancer, blood cancer, pancreatic cancer, colorectal cancer, brain cancer, neuroblastoma, melanoma, liver cancer, cervical carcinoma, ovarian cancer, renal cancer, and papilloma cell lines were each treated with trypsin-EDTA and cultured, followed by being seeded in each well of a 96 well plate. After 24 hours of treatment at constant temperature, the respective cells were treated with the candidate compound so that a final concentration became 0 to 2 μM. The treated cells were additionally cultured for 72 hours, and cell viability was measured by using an ATP detection method (CellTiter-Glo® Luminescent Cell Viability Assay, Promega).

[3] = test system: blood cancer cell lines (e.g. HL-60, Jurkat, Raji, Ramos, Daudi, MOLT-4); test: Cell based assay, cell viability (CellTiter-Glo), blood cancer cell lines; settings: Homo sapiens
Protocol: as §2

[4] = test system: brain cancer cell lines; test: Cell based assay, cell viability (CellTiter-Glo), brain cancer cell lines; settings: Homo sapiens
Protocol: as §1

[5] = test system: renal cancer cell lines; test: Cell based assay, cell viability (CellTiter-Glo), renal cancer cell lines; settings: Homo sapiens; ACHN cells
Protocol: as §2

[6] = pancreatic cancer cell line AsPC-1, 72 hours, read-out: IC50, AsPC-1
[7] = pancreatic cancer cell line BxPC-3, 72 hours, read-out: IC50, BxPC-3
[8] = pancreatic cancer cell line CFPAC-1, 72 hours, read-out: IC50, CFPAC-1
[9] = pancreatic cancer cell line Capan-1, 72 hours, read-out: IC50, Capan-1
[10] = pancreatic cancer cell line Capan-2, 72 hours, read-out: IC50, Capan-2
[11] = pancreatic cancer cell line MIA PaCa-2, 72 hours, read-out: IC50, MIA PaCa-2
[12] = pancreatic cancer cell line PANC-1, 72 hours, read-out: IC50, PANC-1
[13] = MV4-11, blood cancer cell line MV-4-11, 72 hours, read-out: IC50, MV-4-11
[14] = blood cancer cell line Daudi, 72 hours, read-out: IC50, Daudi
[15] = blood cancer cell line HL-60, 72 hours, read-out: IC50, HL-60
[16] = blood cancer cell line Jurkat, 72 hours, read-out: IC50, Jurkat
[17] = blood cancer cell line MOLT-4, 72 hours, read-out: IC50, MOLT-4
[18] = blood cancer cell line Raji, 72 hours, read-out: IC50, Raji
[19] = blood cancer cell line Ramos (RA 1), 72 hours, read-out: IC50, Ramos (RA 1)
[20] = blood cancer cell line U-937, 72 hours, read-out: IC50, U-937
[21] = U138-MG, U-138 MG cell line, read-out: IC50, Brain cancer cell line U-138 MG
[22] = T98G cell line, read-out: IC50, Brain cancer cell line T98G
[23] = U-251 MG cell line, read-out: IC50, Brain cancer cell line U-251 MG

Structure (SMILES): CC(=O)c1c([S+](C)[O-])[nH]c2c(Cl)ccc(Cl)c2c1=O (centres unmarked) [Compound 6, 3-acetyl-5,8-dichloro-2-(methylsulfinyl)quinolin-4(1H)-one]
pIC50 [1]: < 5.00
pIC50 [2, 6]: < 5.70
pIC50 [2, 7]: < 5.70
pIC50 [2, 8]: < 5.00
pIC50 [2, 9]: < 5.70
pIC50 [2, 10]: < 5.70
pIC50 [2, 11]: 5.87
pIC50 [2, 12]: < 5.70
pIC50 [3, 13]: 5.90
pIC50 [3, 14]: < 5.70
pIC50 [3, 15]: 5.78
pIC50 [3, 16]: < 5.70
pIC50 [3, 17]: 5.77
pIC50 [3, 18]: < 5.70
pIC50 [3, 19]: < 5.70
pIC50 [3, 20]: < 5.70
pIC50 [4, 21]: < 5.70
pIC50 [4, 22]: < 5.00
pIC50 [4, 23]: < 5.70
pIC50 [5]: < 5.70

Structure (SMILES): CSc1c(C(C)=O)c(=O)c2cc(F)ccc2n1C [Compound 7, 3-acetyl-6-fluoro-1-methyl-2-(methylthio)quinolin-4(1H)-one]
pIC50 [1]: < 5.00
pIC50 [2, 6]: < 5.70
pIC50 [2, 7]: < 5.70
pIC50 [2, 8]: < 5.00
pIC50 [2, 9]: < 5.70
pIC50 [2, 10]: < 5.70
pIC50 [2, 11]: < 5.70
pIC50 [2, 12]: < 5.70
pIC50 [3, 13]: < 5.70
pIC50 [3, 14]: < 5.70
pIC50 [3, 15]: < 5.70
pIC50 [3, 16]: < 5.70
pIC50 [3, 17]: < 5.70
pIC50 [3, 18]: < 5.70
pIC50 [3, 19]: < 5.70
pIC50 [3, 20]: < 5.70
pIC50 [4, 21]: < 5.00
pIC50 [4, 22]: < 5.00
pIC50 [4, 23]: < 5.70
pIC50 [5]: < 5.70

Structure (SMILES): CC(=O)c1c(SCc2ccc(Cl)cc2)[nH]c2c(Br)ccc(Cl)c2c1=O [Compound 10, 3-acetyl-8-bromo-5-chloro-2-((4-chlorobenzyl)thio)quinolin-4(1H)-one]
pIC50 [1]: < 5.00
pIC50 [2, 6]: < 5.70
pIC50 [2, 7]: < 5.70
pIC50 [2, 8]: < 5.00
pIC50 [2, 9]: < 5.70
pIC50 [2, 10]: < 5.70
pIC50 [2, 11]: < 5.70
pIC50 [2, 12]: < 5.70
pIC50 [3, 13]: < 5.70
pIC50 [3, 14]: < 5.70
pIC50 [3, 15]: < 5.70
pIC50 [3, 16]: < 5.70
pIC50 [3, 17]: < 5.70
pIC50 [3, 18]: < 5.70
pIC50 [3, 19]: < 5.70
pIC50 [3, 20]: < 5.70
pIC50 [4, 21]: < 5.00
pIC50 [4, 22]: < 5.00
pIC50 [4, 23]: < 5.70
pIC50 [5]: < 5.70

Structure (SMILES): COc1ccccc1Sc1[nH]c2c(Br)ccc(Cl)c2c(=O)c1C(C)=O [Compound 14, 3-acetyl-8-bromo-5-chloro-2-((2-methoxyphenyl)thio)quinolin-4(1H)-one]
pIC50 [1]: < 5.00
pIC50 [2, 6]: < 5.70
pIC50 [2, 7]: < 5.70
pIC50 [2, 8]: < 5.00
pIC50 [2, 9]: < 5.70
pIC50 [2, 10]: < 5.70
pIC50 [2, 11]: < 5.70
pIC50 [2, 12]: < 5.70
pIC50 [3, 13]: < 5.70
pIC50 [3, 14]: < 5.70
pIC50 [3, 15]: < 5.70
pIC50 [3, 16]: < 5.70
pIC50 [3, 17]: < 5.70
pIC50 [3, 18]: < 5.70
pIC50 [3, 19]: < 5.70
pIC50 [3, 20]: < 5.70
pIC50 [4, 21]: < 5.00
pIC50 [4, 22]: < 5.00
pIC50 [4, 23]: < 5.70
pIC50 [5]: < 5.70

Structure (SMILES): COc1ccccc1[S+]([O-])c1[nH]c2c(Br)ccc(Cl)c2c(=O)c1C(C)=O (centres unmarked) [Compound 15, 3-acetyl-8-bromo-5-chloro-2-((2-methoxyphenyl)sulfinyl)quinolin-4(1H)-one]
pIC50 [1]: < 5.00
pIC50 [2, 6]: < 5.70
pIC50 [2, 7]: < 5.70
pIC50 [2, 8]: < 5.00
pIC50 [2, 9]: < 5.70
pIC50 [2, 10]: < 5.70
pIC50 [2, 11]: 5.79
pIC50 [2, 12]: < 5.70
pIC50 [3, 13]: < 5.70
pIC50 [3, 14]: < 5.70
pIC50 [3, 15]: < 5.70
pIC50 [3, 16]: < 5.70
pIC50 [3, 17]: < 5.70
pIC50 [3, 18]: < 5.70
pIC50 [3, 19]: < 5.70
pIC50 [3, 20]: < 5.70
pIC50 [4, 21]: < 5.70
pIC50 [4, 22]: < 5.00
pIC50 [4, 23]: < 5.70
pIC50 [5]: < 5.70

Continued, values first:

pIC50 [1]: < 5.00
pIC50 [2, 6]: < 5.70
pIC50 [2, 7]: < 5.70
pIC50 [2, 8]: < 5.00
pIC50 [2, 9]: < 5.70
pIC50 [2, 10]: < 5.70
pIC50 [2, 11]: < 5.70
pIC50 [2, 12]: < 5.70
pIC50 [3, 13]: < 5.70
pIC50 [3, 14]: < 5.70
pIC50 [3, 15]: < 5.70
pIC50 [3, 16]: < 5.70
pIC50 [3, 17]: < 5.70
pIC50 [3, 18]: < 5.70
pIC50 [3, 19]: < 5.70
pIC50 [3, 20]: < 5.70
pIC50 [4, 21]: < 5.00
pIC50 [4, 22]: < 5.00
pIC50 [4, 23]: < 5.70
pIC50 [5]: < 5.70
Structure (SMILES): CSc1[nH]c2ccc(F)cc2c(=O)c1C(C)=O [Compound 8, 1-(6-fluoro-4-hydroxy-2-(methylthio)quinolin-3-yl)ethan-1-one]

pIC50 [1]: < 5.00
pIC50 [2, 6]: < 5.70
pIC50 [2, 7]: < 5.70
pIC50 [2, 8]: < 5.00
pIC50 [2, 9]: < 5.70
pIC50 [2, 10]: < 5.70
pIC50 [2, 11]: 5.99
pIC50 [2, 12]: < 5.70
pIC50 [3, 13]: 5.96
pIC50 [3, 14]: 5.70
pIC50 [3, 15]: 5.92
pIC50 [3, 16]: 5.98
pIC50 [3, 17]: 5.90
pIC50 [3, 18]: 5.94
pIC50 [3, 19]: 5.81
pIC50 [3, 20]: 5.97
pIC50 [4, 21]: 5.90
pIC50 [4, 22]: < 5.00
pIC50 [4, 23]: < 5.70
pIC50 [5]: < 5.70
Structure (SMILES): CC(=O)c1c([S+](C)[O-])n(C(=O)c2ccc(Br)cc2)c2c(Br)ccc(Cl)c2c1=O (centres unmarked) [Compound 9, 3-acetyl-8-bromo-1-(4-bromobenzoyl)-5-chloro-2-(methylsulfinyl)quinolin-4(1H)-one]

pIC50 [1]: < 5.00
pIC50 [2, 6]: < 5.70
pIC50 [2, 7]: < 5.70
pIC50 [2, 8]: < 5.00
pIC50 [2, 9]: < 5.70
pIC50 [2, 10]: < 5.70
pIC50 [2, 11]: < 5.70
pIC50 [2, 12]: < 5.70
pIC50 [3, 13]: < 5.70
pIC50 [3, 14]: < 5.70
pIC50 [3, 15]: < 5.70
pIC50 [3, 16]: < 5.70
pIC50 [3, 17]: < 5.70
pIC50 [3, 18]: < 5.70
pIC50 [3, 19]: < 5.70
pIC50 [3, 20]: < 5.70
pIC50 [4, 21]: < 5.70
pIC50 [4, 22]: < 5.00
pIC50 [4, 23]: < 5.70
pIC50 [5]: < 5.70
Structure (SMILES): CC(=O)c1c([S+]([O-])Cc2ccc(Cl)cc2)[nH]c2c(Br)ccc(Cl)c2c1=O (centres unmarked) [Compound 11, 3-acetyl-8-bromo-5-chloro-2-((4-chlorobenzyl)sulfinyl)quinolin-4(1H)-one]

pIC50 [1]: < 5.00
pIC50 [2, 6]: < 5.70
pIC50 [2, 7]: < 5.70
pIC50 [2, 8]: < 5.00
pIC50 [2, 9]: < 5.70
pIC50 [2, 10]: < 5.70
pIC50 [2, 11]: < 5.70
pIC50 [2, 12]: < 5.70
pIC50 [3, 13]: < 5.70
pIC50 [3, 14]: < 5.70
pIC50 [3, 15]: < 5.70
pIC50 [3, 16]: < 5.70
pIC50 [3, 17]: < 5.70
pIC50 [3, 18]: < 5.70
pIC50 [3, 19]: < 5.70
pIC50 [3, 20]: < 5.70
pIC50 [4, 21]: < 5.00
pIC50 [4, 22]: < 5.00
pIC50 [4, 23]: < 5.70
pIC50 [5]: < 5.70
Structure (SMILES): CC(=O)c1c(Sc2ccccc2)[nH]c2c(Br)ccc(Cl)c2c1=O [Compound 12, 3-acetyl-8-bromo-5-chloro-2-(phenylthio)quinolin-4(1H)-one]

pIC50 [1]: < 5.00
pIC50 [2, 6]: < 5.70
pIC50 [2, 7]: < 5.70
pIC50 [2, 8]: < 5.00
pIC50 [2, 9]: < 5.70
pIC50 [2, 10]: < 5.70
pIC50 [2, 11]: < 5.70
pIC50 [2, 12]: < 5.70
pIC50 [3, 13]: < 5.70
pIC50 [3, 14]: < 5.70
pIC50 [3, 15]: < 5.70
pIC50 [3, 16]: < 5.70
pIC50 [3, 17]: < 5.70
pIC50 [3, 18]: < 5.70
pIC50 [3, 19]: < 5.70
pIC50 [3, 20]: < 5.70
pIC50 [4, 21]: < 5.00
pIC50 [4, 22]: < 5.00
pIC50 [4, 23]: < 5.70
pIC50 [5]: < 5.70
Structure (SMILES): CC(=O)c1c([S+]([O-])c2ccccc2)[nH]c2c(Br)ccc(Cl)c2c1=O (centres unmarked) [Compound 13, 3-acetyl-8-bromo-5-chloro-2-(phenylsulfinyl)quinolin-4(1H)-one]
